Reference: ChEMBL document CHEMBL2390818, “Peripherally acting novel lipo-endomorphin-1 peptides in neuropathic pain without producing constipation” (Bioorg Med Chem, 2013)
Activity calls are given as the source filed them. Peptide text beside a SMILES is read from it.

Experiments:
Rattus norvegicus [1] = assay: Antiallodynic activity in Sprague-Dawley rat chronic constriction injury model assessed as change in ipsilateral hindpaw withdrawal threshold at 0.16 to 16 umol/kg, iv administered as single bolus dose separated by 2 to 3 days wash-out period; format: functional, organism-based
Rattus norvegicus [2] = assay: Antiallodynic activity in Sprague-Dawley rat chronic constriction injury model assessed as change in ipsilateral hindpaw withdrawal threshold at 0.5 umol/kg, iv administered as single bolus dose separated by 2 to 3 days wash-out period; format: functional, organism-based
Rattus norvegicus [3] = assay: Toxicity in Sprague-Dawley rat assessed as induction of constipation measured as gastrointestinal propulsion rate at 16 umol/kg, iv administered as single bolus dose prior to aqueous activated charcoal suspension treatment measured after 1 hr (reference value: 65.3 +/- 3.1%); format: organism-based; conditions: in vivo
Rattus norvegicus [4] = assay: Antiallodynic activity in iv dosed Sprague-Dawley rat chronic constriction injury model assessed as change in ipsilateral hindpaw withdrawal threshold administered as single bolus dose; format: functional
Rattus norvegicus [5] = assay: Antiallodynic activity in iv dosed Sprague-Dawley rat chronic constriction injury model assessed as change in ipsilateral hindpaw withdrawal threshold administered as single bolus dose separated by 2 to 3 days wash-out period; format: functional
Rattus norvegicus [6] = assay: Toxicity in Sprague-Dawley rat assessed as induction of respiratory depression measured as change in hypercapnia-induced stimulation of minute ventilation at 1.6 umol/kg, iv administered as single bolus dose after 0.5 to 2 hrs; format: organism-based; conditions: in vivo
Rattus norvegicus [7] = assay: Toxicity in Sprague-Dawley rat castor oil-induced diarrhoea model assessed as induction of constipation at 1.6 to 16 umol/kg, iv administered as single bolus dose incubated for 5 mins prior to castor oil-challenge measured after 8 hrs; format: organism-based; conditions: in vivo
Rattus norvegicus [8] = assay: Antiallodynic activity in iv dosed Sprague-Dawley rat chronic constriction injury model assessed as change in ipsilateral hindpaw withdrawal threshold administered as single bolus dose separated by 2 to 3 days wash-out period measured at 15 mins to 2 hrs post dose; format: functional, organism-based
Rattus norvegicus [9] = assay: Antinociceptive activity in contralateral hindpaw of Sprague-Dawley rat chronic constriction injury model at 5 umol/kg, iv administered as single bolus dose separated by 2 to 3 days wash-out period; format: functional, organism-based
Rattus norvegicus [10] = assay: Antiallodynic activity in Sprague-Dawley rat chronic constriction injury model assessed as change in ipsilateral hindpaw withdrawal threshold at 0.5 to 5 umol/kg, iv administered as single bolus dose; format: functional, organism-based

| Compound | Activity (Rattus norvegicus [1]) | Activity (Rattus norvegicus [2]) | ED50 (Rattus norvegicus [5]) [µmol/kg] | Activity (Rattus norvegicus [8]) | Activity (Rattus norvegicus [9]) | further results |
| --- | --- | --- | --- | --- | --- | --- |
| Cc1cc(O)cc(C)c1C[C@H](N)C(=O)N1CCC[C@H]1C(=O)N[C@@H](Cc1c[nH]c2ccccc12)C(=O)N[C@@H](Cc1ccccc1)C(N)=O | inactive |  |  |  |  |  |
| CCCCCCC(N)C(=O)N[C@@H](Cc1ccc(O)cc1)C(=O)N1CCC[C@H]1C(=O)N[C@@H](Cc1c[nH]c2ccccc12)C(=O)N[C@@H](Cc1ccccc1)C(N)=O (stereo partly specified) (HELM PEPTIDE1{[CCCCCCC(N)C(=O)[*:2]].Y.P.W.F.[am]}$$$$V2.0) |  | Active | 6.58 | Dose-dependent effect | inactive | Activity (Rattus norvegicus [3]): 77%; ED50 (Rattus norvegicus [4]): 6.64 µmol/kg; Activity (Rattus norvegicus [6]): Non-toxic; Activity (Rattus norvegicus [7]): Non-toxic; Activity (Rattus norvegicus [10]): Active |
| CCCCCCC(N)C(=O)N[C@@H](Cc1c(C)cc(O)cc1C)C(=O)N1CCC[C@H]1C(=O)N[C@@H](Cc1c[nH]c2ccccc12)C(=O)N[C@@H](Cc1ccccc1)C(N)=O (stereo partly specified) (HELM PEPTIDE1{[CCCCCCC(N)C(=O)[*:2]].[Cc1cc(O)cc(C)c1C[C@H](N[*:1])C(=O)[*:2]].P.W.F.[am]}$$$$V2.0) |  | Active | 6.18 | Dose-dependent effect | inactive |  |
| NC(=O)[C@H](Cc1ccccc1)NC(=O)[C@H](Cc1c[nH]c2ccccc12)NC(=O)[C@@H]1CCCN1C(=O)[C@@H](N)Cc1ccc(O)cc1 | inactive |  |  |  |  |  |
| CN1CC[C@]23c4c5ccc(O)c4O[C@H]2[C@@H](O)C=C[C@H]3[C@H]1C5 |  |  | 2.64 |  |  |  |
